Molecular target: T1, ATP synthase subunit c (Escherichia coli, UniProt P68699)
T1 construct: gene atpE; native ATP synthase in membrane vesicles of E. coli ATCC 25922; with whole ATP synthase complex
Test: inhibition of NADH-driven ATP synthesis in E. coli membrane vesicles, luminescence (ATPlite), Dixon-type Ki
Assay type: biochemical
Settings: read-out: Ki (μM) In Vitro

T1 sequence (P68699 whole entry): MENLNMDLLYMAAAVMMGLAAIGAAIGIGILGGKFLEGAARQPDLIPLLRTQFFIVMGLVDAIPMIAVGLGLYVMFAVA

SMILES | Ki [µM]
C[C@H]1CCC2(NC1)O[C@H]1C[C@H]3[C@@H]4CCC5C[C@H](NCCN)CC[C@]5(C)[C@H]4CC[C@]3(C)[C@H]1[C@@H]2C (some centres unmarked) [TM-03] | 3.5
C[C@H]1CCC2(NC1)O[C@H]1C[C@H]3[C@@H]4CCC5C[C@@H](NCCN)CC[C@]5(C)[C@H]4CC[C@]3(C)[C@H]1[C@@H]2C (some centres unmarked) [TM-02] | 1.1

Source: article PMC10821064, “Mode of Antibacterial Action of Tomatidine C3-Diastereoisomers” (Molecules, 2024)
